We go through 12 compounds from US7528126B2, “Pyrrolobenzodiazepines” (Spirogen Limited, priority 2004, dated 2009).

≈ marks a conversion by molar mass, not a printed value.

One assay relates to Streptococcus agalactiae. Put plainly: Antimicrobial susceptibility test (disc diffusion), Streptococcus agalactiae. Format: cell-based. To be noted: dash = none; for Resistant %: share of Streptococcus agalactiae strains classed resistant; for Sensitive %: share of Streptococcus agalactiae strains classed sensitive. As for the experimental part:
(§1) Several bacterial colonies were transferred from the agar plates to bijoux containing MHB. The suspension is incubated at 35° C. and subsequently diluted down in sterile saline to match the density of a McFarland standard solution. A sterile cotton swab is then dipped in the bacterial inoculum and pressed against the bijou walls to remove any excess solution. MHA plates are then thoroughly streaked with the swab three times, turning the plate 60° each time. The discs are placed onto the inoculated plate within 15 minutes. The positions of the discs should allow enough space (≈24 mm) around each individual disc in order to measure the diffusion diameter at a later stage. The plates were incubated immediately at 35° C. for 16-18 hours for all organisms excluding VRE, and MRSA, which require a 24-hour incubation. The experiment was valid if there was a confluent bacterial growth, not single colonies, and circular inhibition zones were evident. Clear zones produced around the disc were measured with a ruler and interpreted according to the tables provided by the NCCLS. Bacteria were classified as sensitive, intermediate or resistant.

The test system of another assay is Listeria monocytogenes. Put plainly: Antimicrobial susceptibility test (disc diffusion), Listeria monocytogenes. Format: cell-based. The settings on record: dash = none; for Sensitive %: share of Listeria monocytogenes strains classed sensitive; for Resistant %: share of Listeria monocytogenes strains classed resistant. As for the experimental part: as §1
On the technique in general: In agar diffusion tests the substance spreads into inoculated agar from a disc or well.

Another assay relates to Streptococcus pyogenes. Put plainly: Antimicrobial susceptibility test (disc diffusion), Streptococcus pyogenes. The settings on record: dash = none; for Sensitive %: share of Streptococcus pyogenes strains classed sensitive. Format: cell-based. As for the experimental part: as §1
In another assay the test system is VRE. The assay can be described thus: Antimicrobial susceptibility test (disc diffusion), VRE. Format: cell-based, vancomycin resistant enterococci. To be noted: dash = none; for Resistant %: share of VRE strains classed resistant; for Sensitive %: share of VRE strains classed sensitive. As for the experimental part: as §1
In assay [1] the test system is K562 human chronic myeloid leukaemia cells. To be noted: value quoted for comparison; read-out: IC50 quoted in WO 93/18045; cited from earlier work.
Assay [2] deals with MRSA. Put plainly: Antimicrobial susceptibility test (disc diffusion), MRSA. The assay is classed as cell-based, methicillin resistant Staphylococcus aureus. To be noted: for Resistant %: share of MRSA strains classed resistant; for Sensitive %: share of MRSA strains classed sensitive. As for the experimental part: as §1
Assay [3] deals with MRSA. The settings on record: literature values for comparison; cited from earlier work.

Regarding `NCC[C@H](O)C(=O)N[C@@H]1C[C@H](N)[C@@H](O[C@H]2O[C@H](CN)[C@@H](O)[C@H](O)[C@H]2O)[C@H](O)[C@H]1O[C@H]1O[C@H](CO)[C@@H](O)[C@H](N)[C@H]1O` [Amikacin], the Resistant % in the assay on Streptococcus agalactiae and with Streptococcus pyogenes (share of Streptococcus pyogenes strains classed resistant) was 100% in each case. This compound also registered a Sensitive % in the assay with Listeria monocytogenes of 100%.

Regarding `CCC[C@@H]1C[C@@H](C(=O)N[C@@H]([C@H]2O[C@H](SC)[C@H](O)[C@@H](O)[C@H]2O)[C@H](C)Cl)N(C)C1` [Clindamycin], the Sensitive % in the assay on Streptococcus agalactiae was 100%; in the assay with Streptococcus pyogenes it was 100%; in the assay with VRE, 15%. The Resistant % in the assay on Listeria monocytogenes amounted to 100%; in the assay on VRE it was 85%.

For the compound `CC[C@H]1OC(=O)[C@H](C)[C@@H](O[C@H]2C[C@@](C)(OC)[C@@H](O)[C@H](C)O2)[C@H](C)[C@@H](O[C@@H]2O[C@H](C)C[C@H](N(C)C)[C@H]2O)[C@](C)(O)C[C@@H](C)C(=O)[C@H](C)[C@@H](O)[C@]1(C)O` [Erythromycin], the Sensitive % in the assay on Streptococcus agalactiae amounted to 100%; in the assay on Listeria monocytogenes, 100%; in the assay with Streptococcus pyogenes it was 100%; in the assay with VRE, 10%. Besides, the Resistant % with VRE turned out to be 90%.

As for `CC=C1C[C@H]2C=Nc3cc(OCCCOc4cc5c(cc4OC)C(=O)N4CC(=CC)C[C@H]4C=N5)c(OC)cc3C(=O)N2C1` [Example 6 in WO 93/18045], the IC50 in assay [1] was 10 nM.

As to `Cc1onc(-c2ccccc2)c1C(=O)N[C@@H]1C(=O)N2[C@@H]1SC(C)(C)[C@@H]2C(=O)O` [Oxacillin], the Sensitive % in the assay on Streptococcus agalactiae and in the assay with Streptococcus pyogenes was 100% each time. For the same compound, the Resistant % in the assay with Listeria monocytogenes and in the assay with VRE was 100% each time.

With `CO[C@H]1/C=C/O[C@@]2(C)Oc3c(C)c(O)c4c(O)c(c(/C=N/N5CCN(C)CC5)c(O)c4c3C2=O)NC(=O)/C(C)=C\C=C\[C@H](C)[C@H](O)[C@@H](C)[C@@H](O)[C@@H](C)[C@H](OC(C)=O)[C@@H]1C` [Rifampicin], the Sensitive % in the assay on Streptococcus agalactiae, with Listeria monocytogenes and in the assay on Streptococcus pyogenes was 100% each time.

With `CN(C)[C@@H]1C(O)=C(C(N)=O)C(=O)[C@@]2(O)C(O)=C3C(=O)c4c(O)cccc4[C@@](C)(O)[C@H]3C[C@@H]12` [Tetracycline], the values for the Resistant % in the assay with Streptococcus agalactiae and with VRE were 90% and 60%, respectively. The Sensitive % amounted to 10% in the assay with Streptococcus agalactiae, 100% in the assay with Listeria monocytogenes, 100% with Streptococcus pyogenes and 40% with VRE.

As for `COc1cc(Cc2cnc(N)nc2N)cc(OC)c1OC` [Trimethophrim], the Sensitive % with Streptococcus agalactiae is listed as 100%; in the assay on Listeria monocytogenes it was 100%; in the assay on Streptococcus pyogenes, 100%; in the assay with VRE it was 25%; with MRSA [2] (dash = none) it was 68%. For the same compound, the Resistant % in the assay with VRE turned out to be 75%; with MRSA [2] (dash = none) it was 32%.

For the compound `CN[C@H](CC(C)C)C(=O)N[C@H]1C(=O)N[C@@H](CC(N)=O)C(=O)N[C@H]2C(=O)N[C@H]3C(=O)N[C@H](C(=O)N[C@H](C(=O)O)c4cc(O)cc(O)c4-c4cc3ccc4O)[C@H](O)c3ccc(c(Cl)c3)Oc3cc2cc(c3O[C@@H]2O[C@H](CO)[C@@H](O)[C@H](O)[C@H]2O[C@H]2C[C@](C)(N)[C@H](O)[C@H](C)O2)Oc2ccc(cc2Cl)[C@H]1O` [Vancomycin], the Sensitive % with Streptococcus agalactiae, in the assay on Listeria monocytogenes and in the assay with Streptococcus pyogenes was 100% throughout. Also, the “MIC in MRSA” value with MRSA [3] is “about 2 mg/L”. In addition, the Resistant % with VRE is 100%. In the assay on MRSA [2] (in words, summary of Table 4), the “susceptibility of all MRSA strains used” value is “completely susceptible”.

For the compound `CC(=O)NC[C@H]1CN(c2ccc(N3CCOCC3)c(F)c2)C(=O)O1` [linezolid], in the assay with MRSA [3], the “MIC in MRSA” value is roughly 1 µg/mL (≈ 2.96 µM).

For the compound Gentamicin, the results for the Resistant % in the assay with Streptococcus agalactiae, with VRE and in the assay with MRSA [2] (dash = none) were 100%, 80% and 70%, respectively. Besides, the Sensitive % in the assay on Listeria monocytogenes came out at 100%; in the assay on Streptococcus pyogenes, 100%; with VRE, 20%; in the assay with MRSA [2] (dash = none), 22%. This compound also displayed an Intermediate % in the assay on MRSA [2] (share of MRSA strains classed intermediate, dash = none) of 8%.

For synercid, the “MIC in MRSA” value in the assay with MRSA [3] is roughly 0.5 µg/mL.
